US10808018B2, “Erythropoietin-derived peptides and methods of protecting cells from oxidative damage induced by reactive oxygen species” (SYLUS CO., LTD., priority 2017, dated 2020)
Peptide text beside a SMILES is read from it.

How the values were obtained:
PC12 cells = test: Cell proliferation side effect, MTS assay; type: cell-based; conditions: peptide 1 pM to 0.5 nM, 48 hours, FIG. 4
Protocol: Side effects such as cell proliferation were determined for the three peptides (ML1-L2, ML1-K2, and ML1-R2) prepared in Example 4.
In detail, to determine cell proliferation degree, an MTS assay (CellTiter 96 Aqueous One Solution Cell Proliferation Assay, Promega, Madison, Wis., USA) was performed. […] The initial number of cells (0 hour) and the number of cells after 48 hours were counted. Intracellular soluble formazan produced by cell reduction was determined by recording absorbance of each 96-well plate at a wavelength of 490 nm using a VERSA MAX.

[1] = target: T1, Soluble mouse EPOR chimera proteins (erythropoietin receptor) (Mus musculus, UniProt P14753); test: Surface plasmon resonance (SPR) binding affinity to erythropoietin receptor; conditions: Table 8; for Ka: association rate
T1 construct: Soluble mouse EPOR chimera proteins; purchased R&D Systems
T1 sequence (P14753 25-249 limits assumed): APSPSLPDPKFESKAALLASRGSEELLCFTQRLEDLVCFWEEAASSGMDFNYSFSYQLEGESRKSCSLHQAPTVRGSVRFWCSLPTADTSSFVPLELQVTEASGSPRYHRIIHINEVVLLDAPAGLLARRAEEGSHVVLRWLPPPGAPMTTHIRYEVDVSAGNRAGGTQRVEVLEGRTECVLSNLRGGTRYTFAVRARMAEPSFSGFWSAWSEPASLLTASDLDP
Description: The SPR technique is to measure interactions between biomolecules in real-time by using an optical principle without specific labeling, and is a system analyzing affinity between two molecules and kinetics, i.e., an association rate (Ka) and a dissociation rate (Kd). In detail, real-time SPR analysis may be performed using Reichert SPR Biosensor SR […] instrument (Reichert Inc., NY, USA). Soluble mouse EPOR chimera proteins (R&D Systems, Minneapolis, Minn., USA) were covalently linked to a carboxymethylated dextran matrix-coated chip (BR-1005-39, Pharmacia Biosensor AB) by an amine coupling procedure using an amine coupling kit (BR-1000-50, GE Healthcare, USA) in accordance with manufacturer's instructions. Each 5 pM, 2.5 pM, and 1.25 pM of the peptide samples of the present disclosure and scrambled peptides were applied at a flow rate of 5 μl/minute, and the experiments were independently performed in duplicate. For signal normalization, DMSO was applied at a flow rate of 5 μl/minute. After each binding cycle, the sensor chip was regenerated by injecting 25 mM of acetic acid at a flow rate of 20 μl/minute.

Structure (SMILES)	cell proliferation rate (side effect) (PC12 cells)	Ka [1]	dissociation rate constant (koff) [1]
CC(C)C[C@H](NC(=O)CNC(=O)[C@H](CO)NC(=O)[C@@H](NC(=O)[C@H](C)NC(=O)[C@H](CCCCN)NC(=O)[C@H](CC(=O)O)NC(=O)[C@@H](NC(=O)[C@H](Cc1c[nH]cn1)NC(=O)[C@@H](N)CCCCN)C(C)C)C(C)C)C(=O)N[C@@H](CCCNC(=N)N)C(=O)N[C@@H](CO)C(=O)N[C@@H](CC(C)C)C(=O)N[C@H](C(=O)N[C@H](C(=O)N[C@@H](CCCCN)C(=O)O)[C@@H](C)O)[C@@H](C)O [ML1-K2] (H-KHVDKAVSGLRSLTTK-OH)	no side effect of cell proliferation		
CC(C)C[C@H](NC(=O)[C@@H](NC(=O)[C@@H](NC(=O)[C@H](CC(C)C)NC(=O)[C@H](CO)NC(=O)[C@H](CCCNC(=N)N)NC(=O)[C@H](CC(C)C)NC(=O)CNC(=O)[C@H](CO)NC(=O)[C@@H](NC(=O)[C@H](C)NC(=O)[C@H](CCCCN)NC(=O)[C@H](CC(=O)O)NC(=O)[C@@H](NC(=O)[C@H](Cc1c[nH]cn1)NC(=O)[C@@H](N)CC(C)C)C(C)C)C(C)C)[C@@H](C)O)[C@@H](C)O)C(=O)O [ML1-L2] (H-LHVDKAVSGLRSLTTL-OH)	no side effect of cell proliferation		
CC(C)C[C@H](NC(=O)CNC(=O)[C@H](CO)NC(=O)[C@@H](NC(=O)[C@H](C)NC(=O)[C@H](CCCCN)NC(=O)[C@H](CC(=O)O)NC(=O)[C@@H](NC(=O)[C@H](Cc1c[nH]cn1)NC(=O)[C@@H](N)CCCNC(=N)N)C(C)C)C(C)C)C(=O)N[C@@H](CCCNC(=N)N)C(=O)N[C@@H](CO)C(=O)N[C@@H](CC(C)C)C(=O)N[C@H](C(=O)N[C@H](C(=O)N[C@@H](CCCNC(=N)N)C(=O)O)[C@@H](C)O)[C@@H](C)O [ML1-R2] (H-RHVDKAVSGLRSLTTR-OH)	no side effect of cell proliferation		
CC(C)[C@H](NC(=O)[C@H](CCCCN)NC(=O)[C@@H](N)[C@@H](C)O)C(=O)N[C@@H](CC(N)=O)C(=O)N[C@@H](Cc1ccccc1)C(=O)N[C@@H](Cc1ccc(O)cc1)C(=O)N[C@@H](C)C(=O)N[C@@H](Cc1c[nH]c2ccccc12)C(=O)N[C@@H](CCCCN)C(=O)N[C@@H](CCCNC(=N)N)C(=O)O [ML3] (H-TKVNFYAWKR-OH; N-terminus and C-terminus assumed)		2.05 × 10^2	3 × 10^−3
CC[C@H](C)[C@H](NC(=O)[C@H](C)NC(=O)[C@H](CCC(=O)O)NC(=O)[C@H](CCCCN)NC(=O)[C@H](CCC(N)=O)NC(=O)[C@H](C)NC(=O)CNC(=O)[C@H](CC(C)C)NC(=O)[C@H](C)NC(=O)[C@H](CCCNC(=N)N)NC(=O)[C@H](CC(C)C)NC(=O)[C@@H](NC(=O)[C@H](Cc1c[nH]cn1)NC(=O)[C@@H](NC(=O)[C@H](CC(C)C)NC(=O)[C@@H](NC(=O)[C@H](CCCCN)NC(=O)[C@H](CC(C)C)NC(=O)CNC(=O)[C@H](CO)NC(=O)[C@@H](NC(=O)[C@H](C)NC(=O)[C@H](CCCCN)NC(=O)[C@@H](N)CCCCN)C(C)C)[C@@H](C)O)[C@@H](C)O)[C@@H](C)CC)C(=O)O [ML4-1] (H-KKAVSGLKTLTHILRALGAQKEAI-OH; N-terminus and C-terminus assumed)		4.10 × 10^2	1.20 × 10^−2
CC[C@H](C)[C@H](NC(=O)[C@H](C)NC(=O)[C@H](CCC(=O)O)NC(=O)[C@H](CCCCN)NC(=O)[C@H](CCC(N)=O)NC(=O)[C@H](C)NC(=O)CNC(=O)[C@H](CC(C)C)NC(=O)[C@H](C)NC(=O)[C@H](CCCNC(=N)N)NC(=O)[C@H](CC(C)C)NC(=O)[C@H](CC(C)C)NC(=O)[C@@H](NC(=O)[C@@H](NC(=O)[C@H](CC(C)C)NC(=O)[C@H](CO)NC(=O)[C@H](CCCNC(=N)N)NC(=O)[C@H](CC(C)C)NC(=O)CNC(=O)[C@H](CO)NC(=O)[C@@H](NC(=O)[C@H](C)NC(=O)[C@H](CCCCN)NC(=O)[C@@H](N)CC(=O)O)C(C)C)[C@@H](C)O)[C@@H](C)O)C(=O)O [ML4] (H-DKAVSGLRSLTTLLRALGAQKEAI-OH; N-terminus and C-terminus assumed)		2.2 × 10^2	2.2 × 10^−3
CC(C)C[C@H](NC(=O)CNC(=O)[C@H](C)N)C(=O)N[C@@H](CCCNC(=N)N)C(=O)N[C@@H](CO)C(=O)N[C@@H](CCCNC(=N)N)C(=O)N[C@@H](C)C(=O)N[C@@H](Cc1c[nH]cn1)C(=O)N[C@@H](CC(C)C)C(=O)N[C@@H](CCCNC(=N)N)C(=O)N[C@@H](CCCNC(=N)N)C(=O)N[C@@H](C)C(=O)N[C@@H](CC(C)C)C(=O)N[C@@H](C)C(=O)O [ML5-1] (H-AGLRSRAHLRRALA-OH; N-terminus and C-terminus assumed)		4.42 × 10^2	3.46 × 10^−2
CC(C)C[C@H](NC(=O)CNC(=O)[C@@H](N)CO)C(=O)N[C@@H](CCCNC(=N)N)C(=O)N[C@@H](CO)C(=O)N[C@@H](CC(C)C)C(=O)N[C@H](C(=O)N[C@H](C(=O)N[C@@H](CC(C)C)C(=O)N[C@@H](CC(C)C)C(=O)N[C@@H](CCCNC(=N)N)C(=O)N[C@@H](C)C(=O)N[C@@H](CC(C)C)C(=O)NCC(=O)O)[C@@H](C)O)[C@@H](C)O [ML5] (H-SGLRSLTTLLRALG-OH; N-terminus and C-terminus assumed)		3.04 × 10^2	0.1 × 10^−3
CC[C@H](C)[C@H](NC(=O)[C@H](C)NC(=O)[C@H](CCC(=O)O)NC(=O)[C@H](CCCCN)NC(=O)[C@H](CCC(N)=O)NC(=O)[C@H](C)NC(=O)CNC(=O)[C@H](CC(C)C)NC(=O)[C@H](C)NC(=O)[C@H](CCCNC(=N)N)NC(=O)[C@H](CC(C)C)NC(=O)[C@H](CC(C)C)NC(=O)[C@H](CO)NC(=O)[C@@H](NC(=O)[C@H](CC(C)C)NC(=O)[C@H](CO)NC(=O)[C@H](CCCNC(=N)N)NC(=O)[C@H](CC(C)C)NC(=O)CNC(=O)[C@@H](N)CCCCN)[C@@H](C)CC)C(=O)O [ML6-1] (H-KGLRSLISLLRALGAQKEAI-OH; N-terminus and C-terminus assumed)		1.9 × 10^2	3 × 10^−2
CC[C@H](C)[C@H](NC(=O)[C@H](C)NC(=O)[C@H](CCC(=O)O)NC(=O)[C@H](CCCCN)NC(=O)[C@H](CCC(N)=O)NC(=O)[C@H](C)NC(=O)CNC(=O)[C@H](CC(C)C)NC(=O)[C@H](C)NC(=O)[C@H](CCCNC(=N)N)NC(=O)[C@H](CC(C)C)NC(=O)[C@H](CC(C)C)NC(=O)[C@@H](NC(=O)[C@@H](NC(=O)[C@H](CC(C)C)NC(=O)[C@H](CO)NC(=O)[C@H](CCCNC(=N)N)NC(=O)[C@H](CC(C)C)NC(=O)CNC(=O)[C@@H](N)CO)[C@@H](C)O)[C@@H](C)O)C(=O)O [ML6]			4.5 × 10^−2
CC[C@H](C)[C@H](NC(=O)[C@H](CC(C)C)NC(=O)[C@@H](NC(=O)[C@@H](NC(=O)[C@H](CC(C)C)NC(=O)[C@@H](NC(=O)[C@H](CCCNC(=N)N)NC(=O)[C@H](CC(C)C)NC(=O)CNC(=O)[C@@H](NC(=O)[C@H](C)NC(=O)[C@H](C)NC(=O)[C@H](CCCCN)NC(=O)[C@H](CC(=O)O)NC(=O)[C@@H](NC(=O)[C@H](CCC(=O)O)NC(=O)[C@H](CC(C)C)NC(=O)[C@H](CC(=O)O)NC(=O)[C@H](CC(C)C)NC(=O)[C@H](C)NC(=O)[C@H](CCC(=O)O)NC(=O)[C@@H](N)CC(=O)O)C(C)C)[C@@H](C)O)[C@@H](C)O)[C@@H](C)O)[C@@H](C)O)C(=O)N[C@@H](CCCNC(=N)N)C(=O)N[C@@H](C)C(=O)N[C@@H](CC(C)C)C(=O)O [ML7-1] (H-DEALDLEVDKAATGLRTLTTLIRAL-OH; N-terminus and C-terminus assumed)		2.26 × 10^2	1.44 × 10^−2
CC(C)C[C@H](NC(=O)CNC(=O)[C@H](C)NC(=O)[C@@H](NC(=O)[C@H](C)NC(=O)[C@H](CCCCN)NC(=O)[C@@H](N)CC(N)=O)C(C)C)C(=O)N[C@@H](CCCNC(=N)N)C(=O)N[C@@H](CO)C(=O)N[C@@H](CC(C)C)C(=O)N[C@H](C(=O)N[C@H](C(=O)N[C@@H](CC(N)=O)C(=O)O)C(C)C)[C@@H](C)O [ML8-1] (H-NKAVAGLRSLTVN-OH; N-terminus and C-terminus assumed)			1.5 × 10^−1
CC(C)C[C@H](NC(=O)[C@H](C)NC(=O)[C@H](CCCNC(=N)N)NC(=O)[C@H](CC(C)C)NC(=O)[C@H](CC(C)C)NC(=O)[C@@H](NC(=O)[C@@H](NC(=O)[C@H](CC(C)C)NC(=O)[C@H](CO)NC(=O)[C@H](CCCNC(=N)N)NC(=O)[C@H](CC(C)C)NC(=O)CNC(=O)[C@H](CO)NC(=O)[C@@H](NC(=O)[C@H](C)NC(=O)[C@H](CCCCN)NC(=O)[C@@H](N)CC(=O)O)C(C)C)[C@@H](C)O)[C@@H](C)O)C(=O)O [ML8] (H-DKAVSGLRSLTTLLRAL-OH; N-terminus and C-terminus assumed)		1.8 × 10^2	0.8 × 10^−1
